Here are results for 3 molecules from article PMC8279492, “Quinolinonyl Non-Diketo Acid Derivatives as Inhibitors of HIV-1 Ribonuclease H and Polymerase Functions of Reverse Transcriptase” (Journal of Medicinal Chemistry, 2021).

One data set relates to IN. The note with it: read-out: IN inhibitory activity IC50; cited from earlier work.
A further data set has as its target RNase H. The note with it: cited from earlier work.
Data set [1] addresses T1, HIV-1 RT-associated RNase H activity (Human immunodeficiency virus type 1 group M subtype B, UniProt P03366).
T1 construct: His-tagged p66/p51 HIV-1 RT group M subtype B; His; made in house; host or cells: Escherichia coli M15
Put plainly: biochemical. In kind it is biochemical. On the procedure:
(11) and β-thujaplicinol (BTP) used as positive controls.
(§1) His-tagged p66/p51 HIV-1 RT group M subtype B coded in a p6HRT-prot plasmid was expressed in the Escherichia coli strain M15.[65] Heterodimeric RTs were expressed essentially and purified as described.[66]
(§2) The HIV-1 RT-associated RNase H activity was measured as described.[68] Briefly, the reaction was carried out in a black 96-well plate in a total volume of 100 μL. […] Experiments were performed in duplicate and replicated at least two times. Data were analyzed as described.[36]

Another data set concerns the target T2, HIV-1 RT-RDDP activity (Human immunodeficiency virus type 1 group M subtype B, UniProt P03366).
T2 construct: His-tagged p66/p51 HIV-1 RT group M subtype B; His; made in house; host or cells: Escherichia coli M15
In words: Polymerase assay (RNA-dependent DNA polymerase). In kind it is biochemical. On the procedure: as §1
The HIV-1 RT-associated RNA-dependent DNA polymerase activity was measured as described.[65] Briefly, the reaction was carried out in a black 96-well plate in a total volume of 25 μL. Serial dilutions of compounds were added to the reaction mix containing 60 mM Tris HCl buffer pH 8.1, 8 mM MgCl2, 60 mM KCl, 13 mM DTT, 2.5 mM poly(A)-oligo(dT), and […].

In a further data set the target is HIV-1 IN (Human immunodeficiency virus type 1 group M subtype B, UniProt P12497). In words: biochemical. The protocol: His-tagged NL4-3 IN was expressed from a pET15b plasmid in the E. coli BL21 pLys strain. Recombinant protein was purified as previously described[67] following a batch preparation on Ni-NTA beads (Qiagen, Paris, France).
Both oligonucleotides were purchased from Integrated DNA Technologies, Inc. (Coralville, IA), and the gel was purified in-house. ST reactions were performed by adding molecules or an equivalent volume of 100% dimethyl sulfoxide (DMSO, used as the drug solvent) to a mixture of 20 nM duplex DNA substrate and 400 nM IN in 50 mM MOPS pH 7.2, 7.5 mM MgCl2, and 14 mM 2-mercaptoethanol. Mixtures were incubated at 37 °C for 2 h, and the reaction was quenched by addition of an equal volume of loading buffer [formamide containing 1% sodium dodecyl sulfate (SDS), 0.25% bromophenol blue, and xylene cyanol]. […] Dried gels were visualized using a FLA5000 (Fuji Photo Film, Tokyo, Japan). Densitometric analyses were performed using ImageQuant 5.1 software from GE Healthcare.

The test system of another data set is HIV-1 replication. Put plainly: HIV-1 replication in HeLa-CD4-LTR-β-gal reporter cells. In kind it is cell-based. The note with it: for EC50: Human immunodeficiency virus 1, 24 h, read-out: antiviral activity EC50. On the procedure:
(§3) HIV-1 replication was monitored using HeLa-CD4-LTR-β-gal reporter cells as previously described.[69] Briefly, β-galactosidase activity was monitored 24 h post infection using a replication-competent HIV produced in-house (H9-laï coculture) and a serial dilution of molecules or an equivalent volume of DMSO. In parallel, compounds’ toxicity was determined at 24 h in the same cell line using CellTiter 96 AQueous One Solution Cell Proliferation Assay (Promega, France).

Data set [2] is described as follows: Compounds' toxicity, CellTiter 96 AQueous One Solution Cell Proliferation Assay. In kind it is cell-based. The note with it: human. The protocol: as §3
Another data set concerns the target T3, R448A HIV-1 RT RNase H (Human immunodeficiency virus type 1 group M subtype B, UniProt P03366, R1047A).
T3 construct: Amino acid substitutions were introduced into the p66 HIV-1 RT subunit of a HIV-1 RT; His; made in house; host or cells: Escherichia coli M15
In words: RNase H assay, point-mutant R448A RT. In kind it is biochemical. On the procedure: (§4) An activity curve was performed for all of the enzymes (Figure S1), and a concentration was chosen in the linear dose-response range to perform the enzymatic-inhibition assays.
(§5) Amino acid substitutions were introduced into the p66 HIV-1 RT subunit of a HIV-1 RT using a QuikChange mutagenesis kit, following the manufacturer’s instructions (Agilent Technologies Inc., Santa Clara, CA).
as §2

The next data set deals with T4, K451A HIV-1 RT RNase H (Human immunodeficiency virus type 1 group M subtype B, UniProt P03366, K1050A).
T4 construct: Amino acid substitutions were introduced into the p66 HIV-1 RT subunit of a HIV-1 RT; His; made in house; host or cells: Escherichia coli M15
Put plainly: RNase H assay, point-mutant K451A RT. The data set is classed as biochemical. On the procedure: as §4, §5, §2

For the next data set, the target named is T5, N474A HIV-1 RT RNase H (Human immunodeficiency virus type 1 group M subtype B, UniProt P03366, N1073A).
T5 construct: Amino acid substitutions were introduced into the p66 HIV-1 RT subunit of a HIV-1 RT; His; made in house; host or cells: Escherichia coli M15
In words: RNase H assay, point-mutant N474A RT. In kind it is biochemical. On the procedure:
as §4, §5, §2

A further data set deals with T6, Q475A HIV-1 RT RNase H (Human immunodeficiency virus type 1 group M subtype B, UniProt P03366, Q1074A).
T6 construct: Amino acid substitutions were introduced into the p66 HIV-1 RT subunit of a HIV-1 RT; His; made in house; host or cells: Escherichia coli M15
Put plainly: RNase H assay, point-mutant Q475A RT. The data set is classed as biochemical. The protocol:
as §4, §5, §2

The target of another data set is T7, Y501A HIV-1 RT RNase H (Human immunodeficiency virus type 1 group M subtype B, UniProt P03366, Y1100A).
T7 construct: Amino acid substitutions were introduced into the p66 HIV-1 RT subunit of a HIV-1 RT; His; made in house; host or cells: Escherichia coli M15
In words: RNase H assay, point-mutant Y501A RT. The data set is classed as biochemical. The protocol:
as §4, §5, §2

The target in another data set is T8, W535A HIV-1 RT RNase H (Human immunodeficiency virus type 1 group M subtype B, UniProt P03366, W1134A).
T8 construct: Amino acid substitutions were introduced into the p66 HIV-1 RT subunit of a HIV-1 RT; His; made in house; host or cells: Escherichia coli M15
Put plainly: RNase H assay, point-mutant W535A RT. In kind it is biochemical. On the procedure: as §4, §5, §2

In the next data set the target is T9, K540A HIV-1 RT RNase H (Human immunodeficiency virus type 1 group M subtype B, UniProt P03366, K1139A).
T9 construct: Amino acid substitutions were introduced into the p66 HIV-1 RT subunit of a HIV-1 RT; His; made in house; host or cells: Escherichia coli M15
Put plainly: RNase H assay, point-mutant K540A RT. In kind it is biochemical. On the procedure: as §4, §5, §2

Setting [3] is: anti-RH activity (IC50 ± SD), HIV-1 RT-associated RNase H activity, dose-response curves, no preincubation.
Setting [4] is: wt (RH IC50, uM), supplement CSV, mutagenesis study.

Read-outs that look alike come from different tables or passages of the source.

Usually IC50 stands for the concentration that gives 50% inhibition. Turning to `O=C(O)/C(O)=C/C(=O)c1cn(Cc2ccc(F)cc2)c2cc(N3CCCC3)ccc2c1=O` [compound 2], the IC50 with IN was 0.028 µM; at RNase H, 5.1 µM.

As usually defined, the EC50 is the concentration that produces a half-maximal response. As a reminder, the CC50 is the concentration giving 50% cytotoxicity. Take `O=C(O)c1cn(Cc2ccc(F)cc2)c2ccc(OCc3ccc(OCc4ccccc4)cc3)cc2c1=O` [4t, 6-((4-(Benzyloxy)benzyl)oxy)-1-(4-fluorobenzyl)-4-oxo-1,4-dihydroquinoline-3-carboxylic Acid]: the IC50 in [1] (setting [3]) is 7.48 ± 0.28 µM; in data set [1] (setting [4]), 1.9 ± 0.4 µM; at HIV-1 RT-RDDP activity it was 2.2 ± 0.1 µM; against HIV-1 IN, above 100 µM; against R448A HIV-1 RT RNase H it was 2.2 ± 1.3 µM; at K451A HIV-1 RT RNase H it was 2.9 ± 1.3 µM. Further, the IC50 on N474A HIV-1 RT RNase H was 1.16 ± 1.41 µM; on Q475A HIV-1 RT RNase H, 15.6 ± 1.6 µM; at Y501A HIV-1 RT RNase H it was above 100 µM; against W535A HIV-1 RT RNase H, above 100 µM; against K540A HIV-1 RT RNase H it was 2 ± 1.2 µM. The “SI (selectivity index = CC50/EC50)” value in the data set on HIV-1 replication (CC50/EC50) is given as above 57.8. Also, the half-maximal effective concentration (EC50) in the data set on HIV-1 replication worked out at 1.73 ± 0.47 µM. For the same molecule, the CC50 at 24 h in [2] (HeLa-CD4-LTR-β-gal reporter cells, CC50 (cytotoxic concentration 50%), HeLa-CD4-LTR-β-gal cells, 24 h) was above 100 µM; in data set [2] (HeLa-CD4-LTR-β-gal reporter cells, supplement CSV, read-out: CC50), above 16 µM. Also, the “Fold increase in IC50 compared to wt RT, W535A” value on W535A HIV-1 RT RNase H is on record as above 52.4 fold. In addition, the “W535A (Fold)” value on W535A HIV-1 RT RNase H (supplement CSV, vs wt) is recorded as above 52.4.

In the case of `O=C(O)c1cn(Cc2ccc(F)cc2)c2ccc(OCc3cccc4ccccc34)cc2c1=O` [4o, 1-(4-Fluorobenzyl)-6-(naphthalen-1-ylmethoxy)-4-oxo-1,4-dihydroquinoline-3-carboxylic Acid], the IC50 was 1.51 ± 0.21 µM in data set [1] (setting [3]); 5.2 ± 1.1 µM in data set [1] (setting [4]); 11.4 ± 2.6 µM against HIV-1 RT-RDDP activity; above 100 µM against HIV-1 IN; 19.6 ± 1.24 µM against R448A HIV-1 RT RNase H; 11.8 ± 1.2 µM against K451A HIV-1 RT RNase H. The IC50 was 85.8 ± 1.6 µM against N474A HIV-1 RT RNase H; above 100 µM against Q475A HIV-1 RT RNase H; above 100 µM at Y501A HIV-1 RT RNase H; above 100 µM on W535A HIV-1 RT RNase H; 31.6 ± 1.2 µM on K540A HIV-1 RT RNase H. The EC50 with HIV-1 replication was determined as 8.4 ± 0.7 µM. In data set [2] (HeLa-CD4-LTR-β-gal cells, CC50 (cytotoxic concentration 50%), 24 h), this molecule displayed a CC50 at 24 h of 51 ± 11 µM.
